Test results as given in US10975093B2, “Fused 1,4-diazepines as BET protein degraders” (THE REGENTS OF THE UNIVERSITY OF MICHIGAN, priority 2016, dated 2021).

Key:
Format in all cases: cell-based
MDA-MB-468 = test: Cell growth inhibition, CellTiter-Glo Luminescent Cell Viability Assay, MDA-MB-468; conditions: Homo sapiens, 96 h, MDA-MB-468 cells, 4 days incubation
Method: (§1) Cell growth inhibitory activity of representative Compounds of the Disclosure was determined in various cell lines using CellTiter-Glo® Luminescent Cell Viability Assay. Cells were seeded in 384-well white opaque cell culture plates at a density of 2,000 cells/well with serially diluted compounds and incubated at 37° C. in an atmosphere of 95% air and 5% CO2 for 4 days. Cell viability was determined using the CellTiter-Glo® Luminescent Cell Viability Assay Kit (Promega, Madison, Wis.) according to the manufacture's instruction. Briefly, a volume of CellTiter-Glo® Reagent equal to the volume of cell culture medium was added to each well, and then the plates were incubated at room temperature for 10-20 minutes. The luminescent signal was measured using a Tecan Infinite M1000 multimode microplate reader (Tecan, Morrisville, N.C.). The half maximal inhibitory concentration (IC50) was calculated using the GraphPad Prism 5 software (GraphPad Software, La Jolla, Calif.).

MDA-MB-231 = test: Cell growth inhibition, CellTiter-Glo Luminescent Cell Viability Assay, MDA-MB-231; conditions: Homo sapiens, MDA-MB-231 cells, 4 days incubation
In short: (§2)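 Cells were seeded at 2,000/well with serially diluted compound and grown 4 days at 37° C, 5% CO2. Viability was read by CellTiter-Glo luminescence after 10-20 min at room temperature, and IC50 was fitted from the dose-response.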

MOLM-13 = test: Cell growth inhibition, CellTiter-Glo Luminescent Cell Viability Assay, MOLM-13; conditions: Homo sapiens, MOLM-13 cells, 4 days incubation
In short: as §2

RS4; 11 = test: Cell growth inhibition, CellTiter-Glo Luminescent Cell Viability Assay, RS4;11; conditions: Homo sapiens, 96 h, RS4;11 cells, 4 days incubation
Method: as §1

| IC50 (MDA-MB-231; MDA-MB-231, 96 h) [nM] | IC50 (MOLM-13; MOLM-13, 96 h) [nM] | IC50 (RS4; 11) [nM] | Structure (SMILES) | IC50 (MDA-MB-468) [nM] | IC50 (MDA-MB-231; 96 h) [nM] | IC50 (MOLM-13; 96 h) [nM] |
| --- | --- | --- | --- | --- | --- | --- |
| 7.4 | 6.4 | – | Cc1c(C#Cc2ccc(CCCC#Cc3cccc4c3CN(C3CCC(=O)NC3=O)C4=O)cn2)sc2c1C(c1ccc(Cl)cc1)=NCc1nnc(C)n1-2 (stereo not shown) [Cpd. No. 13, 3-(4-(5-(6-((4-(4-chlorophenyl)-3,9-dimethyl-6H-thieno[3,2-f][1,2,4]triazolo[4,3-a][1,4]diazepin-2-yl)ethynyl)pyridin-3-yl)pent-1-yn-1-yl)-1-oxoisoindolin-2-yl)piperidine-2,6-dione] | 32.4 | – | – |
| – | – | – | Cc1c(C#Cc2ccc(OCCCCc3cccc4c3CN(C3CCC(=O)NC3=O)C4=O)cn2)sc2c1C(c1ccc(Cl)cc1)=NCc1nnc(C)n1-2 (stereo not shown) [Cpd. No. 11, 3-(4-(4-((6-((4-(4-chlorophenyl)-3,9-dimethyl-6H-thieno[3,2-f][1,2,4]triazolo[4,3-a][1,4]diazepin-2-yl)ethynyl)pyridin-3-yl)oxy)butyl)-1-oxoisoindolin-2-yl)piperidine-2,6-dione] | 51 | 18.1 | 11.4 |
| – | – | – | Cc1c(C#Cc2ccc(OCCCCc3cccc4c3CN(C3CCC(=O)NC3=O)C4=O)cn2)sc2c1C(c1ccc(Cl)cc1)=N[C@@H](C)c1nnc(C)n1-2 (stereo partly drawn) [Cpd. No. 12, 3-(4-(4-((6-(((S)-4-(4-chlorophenyl)-3,6,9-trimethyl-6H-thieno[3,2-f][1,2,4]triazolo[4,3-a][1,4]diazepin-2-yl)ethynyl)pyridin-3-yl)oxy)butyl)-1-oxoisoindolin-2-yl)piperidine-2,6-dione] | 3 | 0.86 | 1.2 |
| 0.08 | 0.8 | 0.1 | Cc1c(C#Cc2cnn(CCCC#Cc3cccc4c3CN(C3CCC(=O)NC3=O)C4=O)c2)sc2c1C(c1ccc(Cl)cc1)=NCc1nnc(C)n1-2 (stereo not shown) [Cpd. No. 20, 3-(4-(5-(4-((4-(4-chlorophenyl)-3,9-dimethyl-6H-thieno[3,2-f][1,2,4]triazolo[4,3-a][1,4]diazepin-2-yl)ethynyl)-1H-pyrazol-1-yl)pent-1-yn-1-yl)-1-oxoisoindolin-2-yl)piperidine-2,6-dione] | 0.2 | – | – |
| 0.39 | – | 0.13 | Cc1c(C#Cc2cnn(CCCCNc3cccc4c3CN(C3CCC(=O)NC3=O)C4=O)c2)sc2c1C(c1ccc(Cl)cc1)=N[C@@H](C)c1nnc(C)n1-2 (stereo partly drawn) [compound 145, 3-(4-((4-(4-(((S)-4-(4-chlorophenyl)-3,6,9-trimethyl-6H-thieno[3,2-f][1,2,4]triazolo[4,3-a][1,4]diazepin-2-yl)ethynyl)-1H-pyrazol-1-yl)butyl)amino)-1-oxoisoindolin-2-yl)piperidine-2,6-dione] | – | – | – |
| 30.4 | 6.4 | 1 | Cc1c(C#Cc2cnn(CCCC#Cc3ccc(F)c4c3CN(C3CCC(=O)NC3=O)C4=O)c2)sc2c1C(c1ccc(Cl)cc1)=NCc1nnc(C)n1-2 (stereo not shown) [compound 142, 3-(4-(5-(4-((4-(4-chlorophenyl)-3,9-dimethyl-6H-thieno[3,2-f][1,2,4]triazolo[4,3-a][1,4]diazepin-2-yl)ethynyl)-1H-pyrazol-1-yl)pent-1-yn-1-yl)-7-fluoro-1-oxoisoindolin-2-yl)piperidine-2,6-dione] | 32.9 | – | – |
| 0.18 | 0.24 | – | Cc1c(C#Cc2ccc(CCCC#Cc3cccc4c3CN(C3CCC(=O)NC3=O)C4=O)cn2)sc2c1C(c1ccc(Cl)cc1)=N[C@@H](C)c1nnc(C)n1-2 (stereo partly drawn) [Cpd. No. 14, 3-(4-(5-(6-(((S)-4-(4-chlorophenyl)-3,6,9-trimethyl-6H-thieno[3,2-f][1,2,4]triazolo[4,3-a][1,4]diazepin-2-yl)ethynyl)pyridin-3-yl)pent-1-yn-1-yl)-1-oxoisoindolin-2-yl)piperidine-2,6-dione] | 1.1 | – | – |
| 71.8 | – | 20.4 | Cc1c(C#Cc2cnn(CCCC#Cc3cccc4c3CN(C3CCC(C)NC3=O)C4=O)c2)sc2c1C(c1ccc(Cl)cc1)=NCc1nnc(C)n1-2 (stereo not shown) [compound 161, 4-(5-(4-((4-(4-chlorophenyl)-3,9-dimethyl-6H-thieno[3,2-f][1,2,4]triazolo[4,3-a][1,4]diazepin-2-yl)ethynyl)-1H-pyrazol-1-yl)pent-1-yn-1-yl)-2-(6-methyl-2-oxopiperidin-3-yl)isoindolin-1-one] | – | – | – |
| 12.7 | – | 3.7 | Cc1c(C#Cc2cnn(CCCCN3C(=O)CCC(N4Cc5c(N)cccc5C4=O)C3=O)c2)sc2c1C(c1ccc(Cl)cc1)=N[C@@H](C)c1nnc(C)n1-2 (stereo partly drawn) [compound 165, 3-(4-amino-1-oxoisoindolin-2-yl)-1-(4-(4-(((S)-4-(4-chlorophenyl)-3,6,9-trimethyl-6H-thieno[3,2-f][1,2,4]triazolo[4,3-a][1,4]diazepin-2-yl)ethynyl)-1H-pyrazol-1-yl)butyl)piperidine-2,6-dione] | – | – | – |
| 284 | – | 216 | Cc1c(C#Cc2cnn(CCCC#Cc3cccc4c3C(=O)N(C3CCC(=O)NC3)C4=O)c2)sc2c1C(c1ccc(Cl)cc1)=NCc1nnc(C)n1-2 (stereo not shown) [compound 163, 4-(5-(4-((4-(4-chlorophenyl)-3,9-dimethyl-6H-thieno[3,2-f][1,2,4]triazolo[4,3-a][1,4]diazepin-2-yl)ethynyl)-1H-pyrazol-1-yl)pent-1-yn-yl)-2-(6-oxopiperidin-3-yl)isoindoline-1,3-dione] | – | – | – |
| 3.7 | – | – | Cc1c(C#Cc2cnn(CCCC#Cc3cccc4c3C(=O)N(C3CCC(=O)NC3=O)C4=O)c2)sc2c1C(c1ccc(Cl)cc1)=N[C@@H](C)c1nnc(C)n1-2 (stereo partly drawn) [Cpd. No. 30, 4-(5-(4-(((S)-4-(4-chlorophenyl)-3,6,9-trimethyl-6H-thieno[3,2-f][1,2,4]triazolo[4,3-a][1,4]diazepin-2-yl)ethynyl)-1H-pyrazol-1-yl)pent-1-yn-1-yl)-2-(2,6-dioxopiperidin-3-yl)isoindoline-1,3-dione] | 3.6 | – | – |
| 22 | – | 2.4 | Cc1c(C#Cc2cnn(CCCC#Cc3cccc4c3CN(C3CCC(C)NC3=O)C4=O)c2)sc2c1C(c1ccc(Cl)cc1)=N[C@@H](C)c1nnc(C)n1-2 (stereo partly drawn) [compound 162, 4-(5-(4-(((S)-4-(4-chlorophenyl)-3,6,9-trimethyl-6H-thieno[3,2-f][1,2,4]triazolo[4,3-a][1,4]diazepin-2-yl)ethynyl)-1H-pyrazol-1-yl)pent-1-yn-1-yl)-2-(6-methyl-2-oxopiperidin-3-yl)isoindolin-1-one] | – | – | – |
| 78.5 | – | 74 | Cc1c(C#Cc2cnn(CCCCNc3cccc4c3C(=O)N(C3CCC(=O)NC3)C4=O)c2)sc2c1C(c1ccc(Cl)cc1)=NCc1nnc(C)n1-2 (stereo not shown) [compound 164, 4-((4-(4-((4-(4-chlorophenyl)-3,9-dimethyl-6H-thieno[3,2-f][1,2,4]triazolo[4,3-a][1,4]diazepin-2-yl)ethynyl)-1H-pyrazol-1-yl)butyl)amino)-2-(6-oxopiperidin-3-yl)isoindoline-1,3-dione] | – | – | – |

| Structure (SMILES) | IC50 (MDA-MB-231; MDA-MB-231, 96 h) [nM] | IC50 (MOLM-13; MOLM-13, 96 h) [nM] | IC50 (RS4; 11) [nM] | IC50 (MDA-MB-468) [nM] | IC50 (MDA-MB-231; 96 h) [nM] | IC50 (MOLM-13; 96 h) [nM] |
| --- | --- | --- | --- | --- | --- | --- |
| Cc1c(C#Cc2cnn(CCCCOc3cccc4c3CN(C3CCC(=O)NC3=O)C4=O)c2)sc2c1C(c1ccc(Cl)cc1)=N[C@@H](C)c1nnc(C)n1-2 (stereo partly drawn) [compound 147, 3-(4-(4-(4-(((S)-4-(4-chlorophenyl)-3,6,9-trimethyl-6H-thieno[3,2-f][1,2,4]triazolo[4,3-a][1,4]diazepin-2-yl)ethynyl)-1H-pyrazol-1-yl)butoxy)-1-oxoisoindolin-2-yl)piperidine-2,6-dione] | 0.08 | – | 0.05 | – | – | – |
| Cc1c(C#Cc2cn(CCCC#Cc3cccc4c3CN(C3CCC(=O)NC3=O)C4=O)cn2)sc2c1C(c1ccc(Cl)cc1)=NCc1nnc(C)n1-2 (stereo not shown) [Cpd. No. 26, 3-(4-(5-(4-((4-(4-chlorophenyl)-3,9-dimethyl-6H-thieno[3,2-f][1,2,4]triazolo[4,3-a][1,4]diazepin-2-yl)ethynyl)-1H-imidazol-1-yl)pent-1-yn-1-yl)-1-oxoisoindolin-2-yl)piperidine-2,6-dione] | – | – | > 10 | > 100 | > 100 | 39.2 |
| Cc1c(C#Cc2ccc(CCCCOc3cccc4c3C(=O)N(C3CCC(=O)NC3=O)C4=O)cn2)sc2c1C(c1ccc(Cl)cc1)=N[C@@H](C)c1nnc(C)n1-2 (stereo partly drawn) [Cpd. No. 10, 4-(4-(6-(((S)-4-(4-chlorophenyl)-3,6,9-trimethyl-6H-thieno[3,2-f][1,2,4]triazolo[4,3-a][1,4]diazepin-2-yl)ethynyl)pyridin-3-yl)butoxy)-2-(2,6-dioxopiperidin-3-yl)isoindoline-1,3-dione] | – | – | 0.26 | 5.2 | 1.6 | 2.5 |
| Cc1c(C#Cc2cnn(CCCCOc3cccc4c3C(=O)N(C3CCC(=O)NC3=O)C4=O)c2)sc2c1C(c1ccc(Cl)cc1)=N[C@@H](C)c1nnc(C)n1-2 (stereo partly drawn) [Cpd. No. 32, 4-(4-(4-(((S)-4-(4-chlorophenyl)-3,6,9-trimethyl-6H-thieno[3,2-f][1,2,4]triazolo[4,3-a][1,4]diazepin-2-yl)ethynyl)-1H-pyrazol-1-yl)butoxy)-2-(2,6-dioxopiperidin-3-yl)isoindoline-1,3-dione] | 2.5 | – | – | 3.5 | – | – |
